Data: patent publication US11266670B2, “Use of scutellarin in a medicament and a modulator for preventing or treating diseases, medicament, and modulator” (University of Macau, priority 2019, dated 2022)
Starred links: 1 amine or outer side, 2 acyl side, 3 side chain; linkers in the order of their positions; H or OH if unused. Positions of bridges follow the written chain, without caps; N, C: chain ends. Non-standard residues stand in square brackets, D forms with d. Residues, ends and D or L forms follow the SMILES beside them. Chains are numbered I, II in the order given. Actinocin(9to1) = Cc1c2oc3c(C)ccc(C(=O)[*:1])c3nc-2c(C(=O)[*:2])c(N)c1=O; NMeV = CN[C@H](C(=O)O)C(C)C; Sar = CNCC(=O)O

Legend:
[1] = system: WEHI-13VAR cells; experiment: TNF bioassay: TNF-induced death of WEHI-13VAR cells in the presence of AcD (MTT); type: cell-based
Protocol: WEHI-13VAR is a fibrosarcoma cell line that is extremely sensitive to TNF-induced cell death in the presence of AcD (0.5 μg/ml) and is commonly used in TNF bioassays. In TNF bioassays, the presence of AcD is a standard approach designed to increase the sensitivity of cells to TNF. TNF acts by binding to its two functionally distinct receptors, TNFR1 and TNFR2. To identify which TNF receptor was expressed on WEHI-13VAR cells, we measured the expression of TNFR1 and TNFR2 on WEHI-13VAR by FACS. […] In the case of labeling with PE anti-mouse TNFR2 antibody, the expression of TNFR2 was higher than in the case of labeling with the isotype control by 50%. […] Furthermore, in order to investigate which TNF receptor is responsible for TNF-induced cell death, we stimulated the cells with TNF, and co-cultured the cells with anti-TNFR1 antibody or anti-TNFR2 antibody for 24 hours. Cell viability was measured by MTT. […]
CHIs are injections developed in China and approved by the China Food and Drug Administration. […] We screened eleven CHIs and assessed their effects on WEHI-13VAR cells by TNF bioassay. […]
WEHI-13VAR cells were seeded in 96-well plates at 1.5×10^4 cells/well. […] Absorbance values were read at 570 nm using a 1420 Multilabel counter victor (PerkinElmer, Waltham, Mass., USA). Cell viability was expressed as the ratio of absorbance values between the sample and the blank control group.

[2] = system: Tregs; experiment: TNF-induced up-regulation of Tregs and Foxp3/TNFR2 expression in cultured lymphocytes (FACS); type: cell-based; conditions: in vitro
Protocol: FIG. 5. […] Lymphocytes were cultured in the presence of IL-2 (10 ng/mL) or IL-2+TNF (10 ng/mL each), with medium alone or with scutellarin (25-50 μM) for 72 hours. (A) Typical FACS analysis of Tregs is shown. The data as shown are representative of at least three separate experiments with similar results. The numbers in the FACS plots show the proportion of cells in the respective quadrants. (B) Summary of the proportion of CD4^+Foxp3^+ cells in CD4^+ cells. (C) Summary of MFI of Foxp3 expression on Tregs. (D) Typical FACS plots of the proportion of TNFR2^+ cells in Tregs. (E) Summary of the proportion of TNFR2^+ cells in CD4^+Foxp3^+Tregs. (F) Summary of MFI of TNFR2 expression on Tregs (by gating on Foxp3^+ cells) (N=3, mean±SEM). ** p<0.01, *** p<0.001, compared to the “TNF+IL-2” group. The data as shown are representative of at least three separate experiments with similar results.
We then explored the effect of scutellarin on the TNF-induced proliferation of Tregs in an in vitro experiment. […]
Lymphocytes were obtained from spleens, axillary lymph nodes, inguinal lymph nodes and mesenteric lymph nodes of mice. […] The proliferation of Tregs was assessed by CFSE dilution assay, and the proportion of Foxp3^+ cells in the CD4^+ subset and the proportion of TNFR2 expressed on Tregs were analyzed by FACS. […] The expression of Foxp3 and TNFR2 was analyzed by FACS. […]

Row | SMILES | cytotoxicity against WEHI-13VAR cells ([1]; scutellarin 12.5-200 μM) | 50% lethal dose of scutellarin [2] | death of WEHI-13VAR cells induced by AcD ([1]; AcD 0.5 μg/ml alone)
1 | O=C(O)[C@H]1O[C@@H](Oc2cc3oc(-c4ccc(O)cc4)cc(=O)c3c(O)c2O)[C@H](O)[C@@H](O)[C@@H]1O [scutellarin] | no significant cytotoxicity against WEHI-13VAR cells | higher than 100 μM | –
2 | Cc1c2oc3c(C)ccc(C(=O)N[C@@H]4C(=O)N[C@H](C(C)C)C(=O)N5CCC[C@H]5C(=O)N(C)CC(=O)N(C)[C@@H](C(C)C)C(=O)O[C@@H]4C)c3nc-2c(C(=O)N[C@@H]2C(=O)N[C@H](C(C)C)C(=O)N3CCC[C@H]3C(=O)N(C)CC(=O)N(C)[C@@H](C(C)C)C(=O)O[C@@H]2C)c(N)c1=O [AcD, actinomycin D, reference compound] (I: T[dV]P[Sar][NMeV] / II: T[dV]P[Sar][NMeV]; ester I:1-I:C, II:1-II:C; linker I:N-II:N via Actinocin(9to1)) | – | – | approximately 30%
